Measured values published in ChEMBL document CHEMBL1201862, “PubChem BioAssay data set” (2004).
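All cell lines were grown in 96-well plates and treated with compound for 48 hours. GI50 is the concentration that inhibits growth by half.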 Activity calls are given as the source filed them. Cut-off read from the data, not from the text of the source: active = GI50 up to about 1.1 µM and inactive = higher.

Assays:
Assay in all cases: growth of human tumour cells (NCI), 48 h
SF-295 = tested on: SF-295
NCI-H23 = tested on: NCI-H23
OVCAR-5 = tested on: OVCAR-5
ACHN = tested on: ACHN
NCI-H460 = tested on: NCI-H460
SF-268 = tested on: SF-268
SN12C = tested on: SN12C
HOP-62 = tested on: HOP-62
HOP-92 = tested on: HOP-92
NCI-H522 = tested on: NCI-H522
XF498 = tested on: XF498
A549 = tested on: A549
SF-539 = tested on: SF-539
K562 = tested on: K562
SK-MEL-5 = tested on: SK-MEL-5
RXF 393 = tested on: RXF 393
Malme-3M = tested on: Malme-3M
HCT-116 = tested on: HCT-116
LOX IMVI = tested on: LOX IMVI
OVCAR-8 = tested on: OVCAR-8
M14 = tested on: M14
IGROV-1 = tested on: IGROV-1
COLO 205 = tested on: COLO 205
KM12 = tested on: KM12
RPMI-8226 = tested on: RPMI-8226
SK-OV-3 = tested on: SK-OV-3
TK-10 = tested on: TK-10
OVCAR-3 = tested on: OVCAR-3
UACC-62 = tested on: UACC-62
HCT-15 = tested on: HCT-15
SK-MEL-28 = tested on: SK-MEL-28
EKVX = tested on: EKVX
SK-MEL-2 = tested on: SK-MEL-2
DMS-114 = tested on: DMS-114
CCRF-CEM = tested on: CCRF-CEM
UO-31 = tested on: UO-31
HT-29 = tested on: HT-29
786-0 = tested on: 786-0
LXFL 529 = tested on: LXFL 529
SNB-75 = tested on: SNB-75
UACC-257 = tested on: UACC-257
DLD-1 = tested on: DLD-1
CAKI-1 = tested on: CAKI-1
U-251 = tested on: U-251
MOLT-4 = tested on: MOLT-4
HCC 2998 = tested on: HCC 2998
HL-60 = tested on: HL-60
NCI-H226 = tested on: NCI-H226
KM-20L2 = tested on: KM-20L2
SR = tested on: SR
A498 = tested on: A498
M19-MEL = tested on: M19-MEL
SNB-78 = tested on: SNB-78
OVCAR-4 = tested on: OVCAR-4
HOP-18 = tested on: HOP-18
SNB-19 = tested on: SNB-19
DMS-273 = tested on: DMS-273
SW-620 = tested on: SW-620

## N#Cc1ccc(Oc2ccccc2)cc1C#N
SF-295
  GI50: > 100 µM (inactive)
NCI-H23
  GI50: > 100 µM (inactive)
OVCAR-5
  GI50: > 100 µM (inactive)
ACHN
  GI50: > 100 µM (inactive)
NCI-H460
  GI50: 33.1 µM (inactive)
SF-268
  GI50: > 100 µM (inactive)
SN12C
  GI50: 96.4 µM (inactive)
HOP-62
  GI50: > 100 µM (inactive)
HOP-92
  GI50: > 100 µM (inactive)
NCI-H522
  GI50: 23.4 µM (inactive)
XF498
  GI50: > 100 µM (inactive)
A549
  GI50: > 100 µM (inactive)
SF-539
  GI50: > 100 µM (inactive)
K562
  GI50: 49.3 µM (inactive)
SK-MEL-5
  GI50: > 100 µM (inactive)
RXF 393
  GI50: > 100 µM (inactive)
Malme-3M
  GI50: > 100 µM (inactive)
HCT-116
  GI50: 74.8 µM (inactive)
LOX IMVI
  GI50: 20.7 µM (inactive)
OVCAR-8
  GI50: > 100 µM (inactive)
M14
  GI50: > 100 µM (inactive)
IGROV-1
  GI50: > 100 µM (inactive)
COLO 205
  GI50: 23.2 µM (inactive)
KM12
  GI50: > 100 µM (inactive)
RPMI-8226
  GI50: 42.8 µM (inactive)
SK-OV-3
  GI50: > 100 µM (inactive)
TK-10
  GI50: > 100 µM (inactive)
OVCAR-3
  GI50: > 100 µM (inactive)
UACC-62
  GI50: > 100 µM (inactive)
HCT-15
  GI50: 19.1 µM
SK-MEL-28
  GI50: > 100 µM (inactive)
EKVX
  GI50: > 100 µM (inactive)
SK-MEL-2
  GI50: 82.4 µM (inactive)
DMS-114
  GI50: 23.7 µM (inactive)
CCRF-CEM
  GI50: 22.4 µM (inactive)
UO-31
  GI50: 92.3 µM (inactive)
HT-29
  GI50: 53.2 µM (inactive)
786-0
  GI50: > 100 µM (inactive)
LXFL 529
  GI50: 42.6 µM (inactive)
SNB-75
  GI50: 72.3 µM (inactive)
UACC-257
  GI50: > 100 µM (inactive)
DLD-1
  GI50: 65.2 µM (inactive)
CAKI-1
  GI50: 63.4 µM (inactive)
U-251
  GI50: 44.3 µM (inactive)
MOLT-4
  GI50: 59.3 µM (inactive)
HCC 2998
  GI50: > 100 µM (inactive)
HL-60
  GI50: 28.2 µM (inactive)
NCI-H226
  GI50: > 100 µM (inactive)
KM-20L2
  GI50: > 100 µM (inactive)
SR
  GI50: 20.4 µM (inactive)
A498
  GI50: > 100 µM (inactive)
M19-MEL
  GI50: 54.2 µM (inactive)
SNB-78
  GI50: 54.6 µM (inactive)
OVCAR-4
  GI50: 96.2 µM (inactive)
HOP-18
  GI50: > 100 µM (inactive)
SNB-19
  GI50: > 100 µM (inactive)
DMS-273
  GI50: 17.4 µM (inactive)

## C[n+]1ccc(-c2cc[n+](C)cc2)cc1 [PARAQUAT DICHLORIDE]
SF-295
  GI50: > 19.6 µM (inactive)
NCI-H23
  GI50: 12.2 µM (inactive)
OVCAR-5
  GI50: 19.7 µM (inactive)
ACHN
  GI50: > 26.4 µM (inactive)
NCI-H460
  GI50: 9.42 µM (inactive)
SF-268
  GI50: > 22.5 µM (inactive)
SW-620
  GI50: > 42 µM (inactive)
SN12C
  GI50: 10.2 µM (inactive)
HOP-62
  GI50: 14.7 µM (inactive)
HOP-92
  GI50: > 44.5 µM (inactive)
XF498
  GI50: 3.74 µM (inactive)
A549
  GI50: 12.1 µM (inactive)
SF-539
  GI50: 20.7 µM (inactive)
K562
  GI50: > 100 µM (inactive)
SK-MEL-5
  GI50: 11.5 µM (inactive)
RXF 393
  GI50: 0.644 µM (active)
Malme-3M
  GI50: 0.265 µM (active)
LOX IMVI
  GI50: > 22.9 µM (inactive)
OVCAR-8
  GI50: > 30 µM (inactive)
M14
  GI50: 13.9 µM (inactive)
IGROV-1
  GI50: 18 µM (inactive)
COLO 205
  GI50: 14.8 µM (inactive)
KM12
  GI50: 5.83 µM (inactive)
RPMI-8226
  GI50: > 70 µM (inactive)
SK-OV-3
  GI50: > 24.7 µM (inactive)
TK-10
  GI50: > 53.6 µM (inactive)
OVCAR-3
  GI50: 14 µM (inactive)
UACC-62
  GI50: 7.19 µM (inactive)
HCT-15
  GI50: > 32.4 µM
EKVX
  GI50: > 30.6 µM (inactive)
SK-MEL-2
  GI50: 2.69 µM (inactive)
DMS-114
  GI50: 8.75 µM (inactive)
CCRF-CEM
  GI50: > 48.4 µM (inactive)
UO-31
  GI50: > 100 µM (inactive)
HT-29
  GI50: 10.8 µM (inactive)
786-0
  GI50: > 100 µM (inactive)
LXFL 529
  GI50: > 37.1 µM (inactive)
SNB-75
  GI50: 33.5 µM (inactive)
UACC-257
  GI50: 1.5 µM (inactive)
DLD-1
  GI50: > 30.3 µM (inactive)
CAKI-1
  GI50: > 100 µM (inactive)
U-251
  GI50: > 32.8 µM (inactive)
MOLT-4
  GI50: > 34.5 µM (inactive)
HCC 2998
  GI50: 14.5 µM (inactive)
HL-60
  GI50: 10 µM (inactive)
NCI-H226
  GI50: 8.43 µM (inactive)
KM-20L2
  GI50: 17 µM (inactive)
SR
  GI50: 11.6 µM (inactive)
A498
  GI50: > 32.6 µM (inactive)
M19-MEL
  GI50: 9.42 µM (inactive)
SNB-78
  GI50: > 22.3 µM (inactive)
OVCAR-4
  GI50: 1.55 µM (inactive)
HOP-18
  GI50: > 100 µM (inactive)
SNB-19
  GI50: 4.99 µM (inactive)
DMS-273
  GI50: 10.5 µM (inactive)
